Reference: patent publication US20180289692A1, “TLR MODULATORS AND METHODS OF USE” (CELGENE CORPORATION, priority 2015, published 2018)
Oligonucleotides are written 5' to 3', each unit as a sugar letter and its base; * is a phosphorothioate linkage, no mark a phosphodiester; rarer units and linkages stand in square brackets, end groups in braces. Plain capitals give the bases only. d = 2'-deoxy (DNA); m = 2'-O-methyl

Tests used:
TLR9 = biological target: T1, TLR9 (Homo sapiens, UniProt Q9NR96); assay: NF-κB reporter gene in recombinant TLR9-expressing HEK293 cells; format: cell-based; details: TLR9-expressing HEK293 cells, FIG. 16A
T1 construct: expressed in transfected cells; host or cells: TLR9 expressing HEK293 reporter cells with a human NF-κB reporter construct
T1 sequence (Q9NR96 26-1032): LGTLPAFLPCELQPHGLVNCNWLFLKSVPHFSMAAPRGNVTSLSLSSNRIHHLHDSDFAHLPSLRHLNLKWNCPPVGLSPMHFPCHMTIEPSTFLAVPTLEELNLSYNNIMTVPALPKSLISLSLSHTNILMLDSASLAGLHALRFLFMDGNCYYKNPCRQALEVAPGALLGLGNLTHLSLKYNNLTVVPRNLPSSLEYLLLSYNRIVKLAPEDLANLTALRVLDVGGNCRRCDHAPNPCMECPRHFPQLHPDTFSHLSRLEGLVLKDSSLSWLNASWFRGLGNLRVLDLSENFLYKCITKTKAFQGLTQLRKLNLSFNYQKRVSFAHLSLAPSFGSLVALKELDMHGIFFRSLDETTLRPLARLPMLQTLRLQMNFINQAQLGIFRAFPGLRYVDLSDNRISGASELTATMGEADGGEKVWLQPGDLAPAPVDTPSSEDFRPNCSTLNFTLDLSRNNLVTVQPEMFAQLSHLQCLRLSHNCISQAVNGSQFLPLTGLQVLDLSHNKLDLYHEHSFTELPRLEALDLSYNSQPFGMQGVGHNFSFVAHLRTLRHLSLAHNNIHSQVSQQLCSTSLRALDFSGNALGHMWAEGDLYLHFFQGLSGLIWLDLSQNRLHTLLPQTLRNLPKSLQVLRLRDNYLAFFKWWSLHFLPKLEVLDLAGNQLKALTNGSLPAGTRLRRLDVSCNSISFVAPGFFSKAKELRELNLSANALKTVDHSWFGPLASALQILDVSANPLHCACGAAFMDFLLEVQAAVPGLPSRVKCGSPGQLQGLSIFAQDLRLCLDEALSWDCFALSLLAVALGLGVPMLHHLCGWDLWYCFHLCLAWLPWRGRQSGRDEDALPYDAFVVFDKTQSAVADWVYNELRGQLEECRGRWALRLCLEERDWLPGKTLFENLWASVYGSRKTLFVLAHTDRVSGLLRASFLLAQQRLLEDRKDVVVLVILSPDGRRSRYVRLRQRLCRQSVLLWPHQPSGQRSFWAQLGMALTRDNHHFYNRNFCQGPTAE
Method: FIGS. 16A-B show results of experiments in which recombinant TLR-expressing HEK293 cells carrying an NF-κB reporter gene were incubated with COMPOUND(I), ODN150, ODN2006, or ODN7040 for 48 hours at the indicated concentrations.

human pDCs [1] = assay: Surface ICOS-L and PD-L1 expression in CCR6+CD123+ human pDCs by FACS; format: cell-based; details: for increase of COMPOUND (I) induced ICOS-L expression by HCQ: primary human pDCs; for PD-L1 protein induction: 24 hrs, FIG. 2B
Method: To evaluate surface ICOS-L, PD-L1 expression in the CCR6+CD123+ pDC cell subsets, PBMCs were incubated on ice in the presence of Fc-Block (BD Pharmingen) for 20 minutes, washed, and incubated with antibodies specific for surface molecules or isotype-matched control mAbs. APC-labeled anti-human ICOS-L mAb were purchased from BioLegend, PECY-7-labeled anti-human CCR6 mAb, FITC-labeled anti-human PD-L1 mAb and PerCP-Cy5.5 labeled anti-human CD123 mAb were purchased from BD Biosciences. The stained cells were then subjected to FACS (FACSCanto, BD Biosciences) using FACSDiva software. FACS analysis was performed using FlowJo software. Single, viable cells in the CCR6+CD123+ pDC gates were analyzed. The flow cytometric results are expressed as the percentage and MFI of ICOSL-, or PD-L1-expressing cells in each gate.
pDCs were isolated and ICOS-L expression was analyzed as described in Example 2.

[2] = test system: canonical NF-κB promoter reporter; assay: Mouse Raw Blue Reporter Cells, SEAP reporter driven by canonical NF-κB promoter (FIG. 11); format: cell-based; details: mouse macrophages, 24 hrs; for activation of canonical NF-κB reporter: SEAP, COMPOUND (I) up to 10 μM
Method: Mouse Raw Blue Reporter Cells (Invivogen), containing a secreted embryonic alkaline phosphatase (SEAP) reporter gene driven by canonical NF-κB promoter, were plated in 96-well plates at 50,000 cells/well in DMEM Media supplemented with 10% FBS, 2 mM L-glutamine, 1% Pen/Strep, […] Normacin. […] The supernatant was harvested and tested for SEAP production by measuring OD at 630 nm.

human PBMCs [3] = assay: Cytokine production by human PBMCs treated with ODNs, MagPix Multi-Plex; format: cell-based; details: for IFN-γ / IL-1β / IL-6 / IL-10 / IL-12p40 / IP10 / TNF-α: human PBMC, 24 hrs
Method: PBMC from 3 donors were isolated from Buffy Coat (Blood Center of NY). The cells were washed with PBS and re-suspended in RPMI-1640 Media with 5% Human AB Serum, 1% Pen/Strep and 2 mM L-glutamine. The cells were then plated in 96-well plates at 250,000 cells/well. […] After 24 hrs, the supernatant was harvested and tested for cytokine production using MagPix Multi-Plex Technology. The following cytokines were tested: IL-6, IL-10, IL-12p40, IFN-α, IFN-γ, IP-10, IL-1β and TNF-α.

human pDCs [4] = assay: Intracellular IL-10, TGF-β1 and IDO expression in CCR6+CD123+ human pDCs by FACS; format: cell-based; details: 24 hrs, FIG. 2A
Description: To evaluate intracellular IL-10, TGFβ 1 and IDO expression in human pDCs, the cells were first stained with PECY-7-labeled anti-human CCR6 mAb (BD Biosciences), PerCP-Cy5.5 labeled anti-human CD123 mAb (BD Biosciences). Stained cells were then fixed and permeabilized using a Cytofix/Cytoperm kit (BD Biosciences) according to the manufacturer's instructions and stained with PE-labeled anti-human IDO (Biolegend), APC-labeled anti-human IL-10 mAb and FITC-labeled anti-human TGF-β1 (BD Biosciences), or isotype-matched control mAbs. The stained cells were acquired by FACSCanto using the FACSDiva software. FACS analysis was performed using FlowJo software. Single, viable cells in the CCR6+CD123+ pDC gates were analyzed. The flow cytometric results are expressed as the percentage and MFI of IL-10-, TGF-β1- or IDO-expressing cells in each gate. Results are expressed as the mean±SEM of cells quantified.
IL10 was alternatively measured in cellular supernatants by ELISA using standard protocols.

human PBMCs [5] = assay: IL-1β secretion from human PBMCs by ELISA (inflammasome activation); format: cell-based; details: 24 hours, FIG. 15
[6] = test system: canonical NF-κB promoter reporter; assay: Canonical NF-κB promoter reporter construct in RAW264.7 macrophage cells (FIG. 10); format: cell-based, mouse; details: 24 hrs
Method: Mouse RAW264.7 macrophage cells containing a reporter construct driven by a canonical NF-κB promoter were plated in 96-well plates at 50,000 cells/well. […] The supernatant was harvested and tested for optical density.

mouse macrophages = assay: TNFα and IL-10 production in mouse macrophages (Raw Blue cells), MagPix; format: cell-based; details: 24 hrs
Method: Mouse Raw Blue Reporter Cells (Invivogen) were plated in 96-well plates at 50,000 cells/well in DMEM Media supplemented with 10% FBS, 2 mM L-glutamine, 1% Pen/Strep, […] Normacin. […] The supernatant was harvested and tested for TNFα and IL-10 production using MagPix Multi-Plex technology.

Row | Compound | activation of canonical NF-κB reporter [2] | IFN-γ (human PBMCs [3]; high-dose ODN 10 μM) | IL-1β (human PBMCs [3]; high-dose ODN 10 μM) | IL-6 (human PBMCs [3]; high-dose ODN 10 μM) | IL-10 (human PBMCs [3]; high-dose ODN 10 μM) | IL-12p40 (human PBMCs [3]; high-dose ODN 10 μM) | IP10 (human PBMCs [3]; high-dose ODN 10 μM) | TNF-α (human PBMCs [3]; high-dose ODN 10 μM) | IFN-γ (human PBMCs [3]; low-dose ODN 0.1 μM) | IL-1β (human PBMCs [3]; low-dose ODN 0.1 μM) | IL-6 (human PBMCs [3]; low-dose ODN 0.1 μM) | IL-10 (human PBMCs [3]; low-dose ODN 0.1 μM) | IL-12p40 (human PBMCs [3]; low-dose ODN 0.1 μM) | IP10 (human PBMCs [3]; low-dose ODN 0.1 μM) | TNF-α (human PBMCs [3]; low-dose ODN 0.1 μM) | TGF-β1 protein induction (human pDCs [4]) | PD-L1 protein induction (human pDCs [1]; human pDCs) | other results
1 | CCN(CCO)CCCC(C)Nc1ccnc2cc(Cl)ccc12 (stereo not shown) [HCQ, hydroxychloroquine] |  |  |  |  |  |  |  |  |  |  |  |  |  |  |  |  |  | effect on COMPOUND (I) activity on NF-κB reporter gene (TLR9): inhibited; increase of COMPOUND (I) induced ICOS-L expression by HCQ (human pDCs [1]; HCQ 10 μM + COMPOUND (I) 1 μM, FIG. 6A): 7.3 fold; increase of COMPOUND (I) induced ICOS-L expression by HCQ (human pDCs [1]; HCQ 10 μM + COMPOUND (I) 1 μM, FIG. 6B): 2.0 fold; increase of COMPOUND (I) induced ICOS-L expression by HCQ (human pDCs [1]; HCQ 10 μM + COMPOUND (I) 10 μM, FIG. 6A): 7.1 fold; increase of COMPOUND (I) induced ICOS-L expression by HCQ (human pDCs [1]; HCQ 10 μM + COMPOUND (I) 10 μM, FIG. 6B): 1.9 fold; ICOS-L expression, agent alone (human pDCs [1]; human pDCs, COMPOUND (I) 1 μM and 10 μM by itself, HCQ 10 μM alone): did not induce measurable levels
2 | ODN150C: 5′-G*G*A*ACAGTTAGTCCATa*G*G*C-3′, PO except * = PS; control lacking CG-dinucleotide sequences (DNA GGAACAGTTAGTCCATGGC; listed as DNA, chemistry not fully specified) | did not activate | 0.1 pg/mL | 0.3 pg/mL | 1.4 fold change | 1 fold change | 0 pg/mL | 1.5 fold change | 1.4 fold change | 0.1 pg/mL | 0.2 pg/mL | 1.2 fold change | 1 fold change | 0 pg/mL | 1 fold change | 1.2 fold change |  |  | 
3 | ODN301C: 5′-GTAGCCCCATCACCCAGCAGC-3′, fully PS, GC-containing (DNA dG*dT*dA*dG*dC*dC*dC*dC*dA*dT*dC*dA*dC*dC*dC*dA*dG*dC*dA*dG*dC) |  | 0 pg/mL | 1.9 pg/mL | 3.3 fold change | 1 fold change | 0.8 pg/mL | 0.25 fold change | 2.8 fold change | 0 pg/mL | 0.1 pg/mL | 1.3 fold change | 1 fold change | 0 pg/mL | 1.1 fold change | 1.1 fold change | can induce | can induce | IL-1β induction (human PBMCs [5]): induce; IFNα secretion from PBMCs (human PBMCs [3]; any tested concentration between 0.01 μM and 10 μM, FIG. 25): not found to induce
4 | ODN302: 5′-GTCGCTCTTCTCCTCCGCCAG-3′, fully PS; scrambled (non-SMAD7 AON) control sequence with two CG sequences (DNA dG*dT*dC*dG*dC*dT*dC*dT*dT*dC*dT*dC*dC*dT*dC*dC*dG*dC*dC*dA*dG) |  | 9.7 pg/mL | 3.9 pg/mL | 41 fold change | 1.5 fold change | 5.2 pg/mL | 4.4 fold change | 9.3 fold change | 1.5 pg/mL | 0.2 pg/mL | 19 fold change | 1.5 fold change | 0.7 pg/mL | 13.9 fold change | 2.4 fold change | can induce | can induce | activation of the NF-κB construct ([6]; 0.1-100 μM): Moderate activation; ODN concentration at which activation of the NF-κB construct was observed [6]: about 1 μM
5 | ODN1826 | potent activator |  |  |  |  |  |  |  |  |  |  |  |  |  |  |  |  | concentration from which the NF-κB reporter is activated [2]: ≤ 0.01 µM; TNFα protein expression (mouse macrophages; FIG. 12, COMPOUND (I) up to 10 μM): induce; IL-10 protein expression (mouse macrophages; FIG. 13, COMPOUND (I) up to 10 μM): induce
6 | ODN7040C: 5′-CTGCCAAGTTCACCTGCA*C*C*-3′, PO; * = 2′OMe; control lacking CG-dinucleotide sequences (DNA dCdTdGdCdCdAdAdGdTdTdCdAdCdCdTdGdCmAmCmC) | did not activate | 0.2 pg/mL | 0.5 pg/mL | 2.1 fold change | 1 fold change | 0.1 pg/mL | 1.4 fold change | 1.4 fold change | 0.2 pg/mL | 0.6 pg/mL | 1.2 fold change | 1 fold change | 0.1 pg/mL | 1.1 fold change | 1.1 fold change |  |  | 
